Inconclusive results are not listed. The source made the active and inactive calls. The rule behind the calls is not given here.
The compounds below were run against Replicative DNA helicase DnaB (Mycobacterium tuberculosis (strain ATCC 25618 / H37Rv)) (UniProt P9WMR3) (assay: DnaB intein splicing inhibitors, dose response, biochemical, M. tuberculosis H37Rv, cell-free fluorescence (AID 449749)).
Chain of Replicative DNA helicase DnaB (Mycobacterium tuberculosis (strain ATCC 25618 / H37Rv)) (P9WMR3 whole entry, looked up): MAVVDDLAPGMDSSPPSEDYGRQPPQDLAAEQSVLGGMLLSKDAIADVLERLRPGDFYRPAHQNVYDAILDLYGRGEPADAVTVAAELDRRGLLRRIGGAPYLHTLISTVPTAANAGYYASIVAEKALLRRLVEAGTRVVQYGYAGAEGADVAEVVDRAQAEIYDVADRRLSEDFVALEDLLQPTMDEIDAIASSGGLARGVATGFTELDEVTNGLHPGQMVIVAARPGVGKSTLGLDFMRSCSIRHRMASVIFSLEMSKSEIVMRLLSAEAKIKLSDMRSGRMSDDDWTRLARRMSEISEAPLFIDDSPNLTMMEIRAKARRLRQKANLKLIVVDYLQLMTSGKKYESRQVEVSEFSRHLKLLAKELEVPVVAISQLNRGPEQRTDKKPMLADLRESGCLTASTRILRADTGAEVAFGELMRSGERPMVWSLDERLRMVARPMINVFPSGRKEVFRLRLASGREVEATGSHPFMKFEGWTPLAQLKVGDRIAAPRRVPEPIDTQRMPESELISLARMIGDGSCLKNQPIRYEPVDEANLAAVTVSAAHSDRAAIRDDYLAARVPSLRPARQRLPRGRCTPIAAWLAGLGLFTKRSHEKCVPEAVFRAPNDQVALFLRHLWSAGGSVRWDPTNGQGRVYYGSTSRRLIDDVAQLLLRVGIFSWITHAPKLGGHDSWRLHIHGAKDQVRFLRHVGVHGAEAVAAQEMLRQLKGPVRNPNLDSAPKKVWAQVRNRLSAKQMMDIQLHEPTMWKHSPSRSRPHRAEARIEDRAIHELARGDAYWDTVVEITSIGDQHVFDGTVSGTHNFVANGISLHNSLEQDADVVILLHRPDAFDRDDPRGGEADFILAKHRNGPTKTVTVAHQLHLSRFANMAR

Row | SMILES | AC50
1 | Cc1[nH][nH]c(=O)c1C(c1ccccc1[N+](=O)[O-])C(C#N)C#N (centres undefined) | > 12 µM (inactive)
2 | COc1ccc2ccc3c(c2c1)N=C[C@]1(O3)N(C)c2ccccc2C1(C)C | > 38 µM (inactive)
3 | Oc1cc(O)c2c(c1)O[C@H](c1ccc(O)c(O)c1)[C@H](O)C2 | > 38 µM (inactive)
4 | Cc1[nH][nH]c(=O)c1[C@@H](c1ccccc1[N+](=O)[O-])C(C#N)C#N | > 38 µM (inactive)

Reference: PubChem BioAssay AID449749 (Broad Institute, 2010)
